{"source": "patent US20050148647A1", "about": "“Hemodialysis solutions and uses thereof” (priority 2003, published 2005)", "data": [{"experiment": "in vivo", "conditions": "dog, plasma", "units": {"concentration at 0 h": "µM", "concentration at 4 h": "µM"}, "procedure": "(§1) Supplementation with casein hydrolysate was evaluated in a dog dialysis model. Two dogs were dialyzed: a control animal underwent four hours of standard hemodialysis. The second animal was dialyzed with dialysate enriched with vitamin-free casein acid hydrolysate under otherwise identical conditions. The dogs were anesthetized and ventilated; venous access for dialysis was achieved via two peripheral venous lines, right femoral and left external jugular. A routine, bicarbonate-based dialysis solution, Centrisol™, was used with both animals and diluted with filtered water by the hemodialysis machine to the appropriate concentration. […] The animals were dialyzed for four hours with a blood flow rate of 300 ml/min and a dialysate flow rate of 500 ml/min. Plasma and dialysate samples were from both animals at t=0 and t=4 hours were analyzed for amino acid content. Additional samples were taken from the serum post-filter and from the dialysate immediately pre-filter.", "values": [{"smiles": "C[C@H](N)C(=O)O", "note": "[alanine]", "concentration at 0 h": 658, "concentration at 4 h": 712}, {"smiles": "N=C(N)NCCC[C@H](N)C(=O)O", "note": "[arginine]", "concentration at 0 h": 132, "concentration at 4 h": 148}, {"smiles": "N[C@@H](CC(=O)O)C(=O)O", "note": "[aspartate]", "concentration at 0 h": 2, "concentration at 4 h": 12}, {"smiles": "N[C@@H](CS)C(=O)O", "note": "[cysteine]", "concentration at 0 h": 8, "concentration at 4 h": 12}, {"smiles": "NCC(=O)O", "note": "[glycine]", "concentration at 0 h": 306, "concentration at 4 h": 260}, {"smiles": "N[C@@H](Cc1c[nH]cn1)C(=O)O", "note": "[histidine]", "concentration at 0 h": 68, "concentration at 4 h": 88}, {"smiles": "CC[C@H](C)[C@H](N)C(=O)O", "note": "[isoleucine]", "concentration at 0 h": 46, "concentration at 4 h": 138}, {"smiles": "CC(C)C[C@H](N)C(=O)O", "note": "[leucine]", "concentration at 0 h": 126, "concentration at 4 h": 290}, {"smiles": "NCCCC[C@H](N)C(=O)O", "note": "[lysine]", "concentration at 0 h": 98, "concentration at 4 h": 198}, {"smiles": "CSCC[C@H](N)C(=O)O", "note": "[methionine]", "concentration at 0 h": 44, "concentration at 4 h": 86}, {"smiles": "N[C@@H](Cc1ccccc1)C(=O)O", "note": "[phenylalanine]", "concentration at 0 h": 34, "concentration at 4 h": 82}, {"smiles": "O=C(O)[C@@H]1CCCN1", "note": "[proline]", "concentration at 0 h": 336, "concentration at 4 h": 428}, {"smiles": "N[C@@H](CO)C(=O)O", "note": "[serine]", "concentration at 0 h": 154, "concentration at 4 h": 154}, {"smiles": "C[C@@H](O)[C@H](N)C(=O)O", "note": "[threonine]", "concentration at 0 h": 108, "concentration at 4 h": 128}, {"smiles": "N[C@@H](Cc1c[nH]c2ccccc12)C(=O)O", "note": "[tryptophan]", "concentration at 0 h": 52, "concentration at 4 h": 52}, {"smiles": "N[C@@H](Cc1ccc(O)cc1)C(=O)O", "note": "[tyrosine]", "concentration at 0 h": 28, "concentration at 4 h": 48}, {"smiles": "CC(C)[C@H](N)C(=O)O", "note": "[valine]", "concentration at 0 h": 118, "concentration at 4 h": 242}]}, {"experiment": "dog dialysis model: hemodialysis with casein hydrolysate-enriched dialysate, plasma amino acid content;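 further: anesthetized dogs on 4 h hemodialysis with bicarbonate dialysate, one enriched with vitamin-free casein acid hydrolysate, control animal on standard dialysis, plasma amino acids measured at 0 and 4 h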", "conditions": "casein group, over the course of dialysis", "procedure": "as §1", "values": [{"smiles": "NCC(=O)O", "note": "[glycine]", "direction of change of plasma concentration of the amino acid (in words)": "decreased"}, {"smiles": "N[C@@H](CO)C(=O)O", "note": "[serine]", "direction of change of plasma concentration of the amino acid (in words)": "remained the same concentration"}]}]}
